Assay results as given in patent US20240108623A1, “METHODS OF TREATING CANCER WITH POZIOTINIB” (BOARD OF REGENTS, THE UNIVERSITY OF TEXAS SYSTEM, priority 2021, published 2024).

Key:
Test in all cases: Ba/F3 cell drug screening, Cell Titer Glo
Type in all cases: cell-based
EGFR A763insFQEA = biological target: T1, EGFR A763insFQEA (Homo sapiens, UniProt P00533, INS763FQEA); settings: Ba/F3 cells expressing EGFR A763insFQEA; 72 hours
T1 construct: expressed in transfected cells; host or cells: Ba/F3 (retroviral, pBabe-Puro based vector)
Description: (§1) Ba/F3 cell generation, drug screening, and IC50 approximations. Ba/F3 cells were obtained as a gift from Dr. Gordon Mills (MD Anderson Cancer Center), and maintained in RPMI (Sigma) containing 10% FBS, 1% penicillin/streptomycin, and 10 ng/ml recombinant mIL-3 (R&D Biosystems). To establish stable Ba/F3 cell lines, Ba/F3 cells were transduced with retroviruses containing mutant EGFR plasmids for 12-24 hours. Retroviruses were generated using Lipofectamine 2000 (Invitrogen) transfections of Phoenix 293T-ampho cells (Orbigen) with pBabe-Puro based vectors listed below in Table 6. Vectors were generated by GeneScript or Bioinnovatise using parental vectors from Addgene listed below in Table 6.
(§2) After 48-72 hours of transduction, 2 μg/ml puromycin (Invitrogen) was added to Ba/F3 cell lines in complete RPMI. To select for EGFR positive cell lines, cells were stained with PE-EGFR (Biolegend) and sorted by FACS. After sorting, EGFR positive cells were maintained in RPMI containing 10% FBS, 1% penicillin/streptomycin, and 1 ng/ml EGF to support cell viability. Drug screening was performed as previously described^41,42. Shortly, cells were plated in 384-well plates (Greiner Bio-One) at 2000-3000 cells per well in technical triplicate. Seven different concentrations of TKIs or DMSO vehicle were added to reach a final volume of 40 μL per well. After 72 hours, 11p L of Cell Titer Glo (Promega) was added to each well. Plates were incubated for a minimum of 10 minutes, and bioluminescence was determined using a FLUOstar OPTIMA plate reader (BMG LABTECH). Raw bioluminescence values were normalized to DMSO control treated cells, and values were plotted in GraphPad Prism. Non-linear regressions were used to fit the normalized data with a variable slope, and IC50 values were determined by GraphPad prism by interpolation of concentrations at 50% inhibition. Drug screens were performed in technical triplicate on each plate and either duplicate or triplicate biological replicates. Mutant to WT ratios (Mut/WT) for each drug were calculated by dividing the IC50 values of mutant cell lines by the average IC50 value of Ba/F3 cells expressing WT EGFR supplemented with 10 ng/ml EGF for each drug. Statistical differences between groups were determined by ANOVA as described in the figure legends.

EGFR D770insNPG = biological target: T2, EGFR D770insNPG (Homo sapiens, UniProt P00533, INS770NPG); settings: Ba/F3 cells expressing EGFR D770insNPG; 72 hours
T2 construct: expressed in transfected cells; host or cells: Ba/F3 (retroviral, pBabe-Puro based vector)
Description: as §1, §2

EGFR E709K = biological target: T3, EGFR E709K (Homo sapiens, UniProt P00533, E709K); settings: Ba/F3 cells expressing EGFR E709K; 72 hours
T3 construct: expressed in transfected cells; host or cells: Ba/F3 (retroviral transduction, pBabe-Puro based vectors)
Description: as §1, §2

EGFR E709_T710del insD = biological target: T4, EGFR E709_T710del insD (Homo sapiens, UniProt P00533, DEL709-709/T710D); settings: Ba/F3 cells expressing EGFR E709_T710del insD; 72 hours
T4 construct: expressed in transfected cells; host or cells: Ba/F3 (retroviral transduction, pBabe-Puro based vectors)
Description: as §1, §2

EGFR Ex19del L718Q = biological target: T5, EGFR Ex19del L718Q (Homo sapiens, UniProt P00533, DEL746-750/L718Q); settings: Ba/F3 cells expressing EGFR Ex19del L718Q; 72 hours
T5 construct: expressed in transfected cells; host or cells: Ba/F3 (murine pro-B cells), retroviral transduction with pBabe-Puro based vectors
Description: as §1, §2

EGFR G719A L861Q = biological target: T6, EGFR G719A L861Q (Homo sapiens, UniProt P00533, G719A/L861Q); settings: Ba/F3 cells expressing EGFR G719A L861Q; 72 hours
T6 construct: expressed in transfected cells; host or cells: Ba/F3 (retroviral transduction, pBabe-Puro based vectors)
Description: as §1, §2

EGFR H773insNPH = biological target: T7, EGFR H773insNPH (Homo sapiens, UniProt P00533, INS773NPH); settings: Ba/F3 cells expressing EGFR H773insNPH; 72 hours
T7 construct: expressed in transfected cells; host or cells: Ba/F3 (retroviral, pBabe-Puro based vector)
Description: as §1, §2

EGFR K754E = biological target: T8, EGFR K754E (Homo sapiens, UniProt P00533, K754E); settings: Ba/F3 cells expressing EGFR K754E; 72 hours
T8 construct: expressed in transfected cells; host or cells: Ba/F3 (retroviral, pBabe-Puro based vector)
Description: as §1, §2

EGFR L718Q = biological target: T9, EGFR L718Q (Homo sapiens, UniProt P00533, L718Q); settings: Ba/F3 cells expressing EGFR L718Q; 72 hours
T9 construct: expressed in transfected cells; host or cells: Ba/F3 (retroviral transduction, pBabe-Puro based vectors)
Description: as §1, §2

EGFR L858R = biological target: T10, EGFR L858R (Homo sapiens, UniProt P00533, L858R); settings: Ba/F3 cells expressing EGFR L858R; 72 hours
T10 construct: expressed in transfected cells; host or cells: Ba/F3 (retroviral, pBabe-Puro based vector)
Description: as §1, §2

EGFR L858R G724S = biological target: T11, EGFR L858R G724S (Homo sapiens, UniProt P00533, G724S/L858R); settings: Ba/F3 cells expressing EGFR L858R G724S; 72 hours
T11 construct: expressed in transfected cells; host or cells: Ba/F3 (murine pro-B cells), retroviral transduction with pBabe-Puro based vectors
Description: as §1, §2

EGFR L858R/L718V = biological target: T12, EGFR L858R/L718V (Homo sapiens, UniProt P00533, L718V/L858R); settings: Ba/F3 cells expressing EGFR L858R/L718V; 72 hours
T12 construct: host or cells: Ba/F3 (retroviral transduction, pBabe-Puro based vectors)
Description: as §1, §2

EGFR L858R/L792H = biological target: T13, EGFR L858R/L792H (Homo sapiens, UniProt P00533, L792H/L858R); settings: Ba/F3 cells expressing EGFR L858R/L792H; 72 hours
T13 construct: expressed in transfected cells; host or cells: Ba/F3 (retroviral transduction, pBabe-Puro based vectors)
Description: as §1, §2

EGFR L861Q = biological target: T14, EGFR L861Q (Homo sapiens, UniProt P00533, L861Q); settings: Ba/F3 cells expressing EGFR L861Q; 72 hours
T14 construct: expressed in transfected cells; host or cells: Ba/F3 (retroviral, pBabe-Puro based vector)
Description: as §1, §2

EGFR S768I V774M = biological target: T15, EGFR S768I V774M (Homo sapiens, UniProt P00533, S768I/V774M); settings: Ba/F3 cells expressing EGFR S768I V774M; 72 hours
T15 construct: host or cells: Ba/F3 (retroviral transduction, pBabe-Puro based vectors)
Description: as §1, §2

EGFR S784F = biological target: T16, EGFR S784F (Homo sapiens, UniProt P00533, S784F); settings: Ba/F3 cells expressing EGFR S784F; 72 hours
T16 construct: expressed in transfected cells; host or cells: Ba/F3 (retroviral, pBabe-Puro based vector; created by GeneScript from EGFR WT)
Description: as §1, §2

C=CC(=O)N1CCC(Oc2cc3c(Nc4ccc(Cl)c(Cl)c4F)ncnc3cc2OC)CC1 [Poziotinib]
Response of Cells Comprising Classical-Like EGFR Mutations to Second-Generation TKIs (EGFR A763insFQEA): 0.06955 | Response of Cells Comprising Ex20ins EGFR Mutations to Poziotinib (EGFR D770insNPG): 0.2889 | Response of Cells Comprising PACC EGFR Mutations to Second-Generation TKIs (EGFR E709K): 0.0379 | Response of Cells Comprising PACC EGFR Mutations to Second-Generation TKIs (EGFR E709_T710del insD): 0.06231 | Response of Cells Comprising PACC EGFR Mutations to Second-Generation TKIs (EGFR Ex19del L718Q): 0.107 | Response of Cells Comprising PACC EGFR Mutations to Second-Generation TKIs (EGFR G719A L861Q): 0.09492 | Response of Cells Comprising Ex20ins EGFR Mutations to Poziotinib (EGFR H773insNPH): 0.3855 | Response of Cells Comprising Classical-Like EGFR Mutations to Second-Generation TKIs (EGFR K754E): 0.009588 | Response of Cells Comprising PACC EGFR Mutations to Second-Generation TKIs (EGFR L718Q): 0.1927 | Response of Cells Comprising Classical-Like EGFR Mutations to Second-Generation TKIs (EGFR L858R): 0.02579 | Response of Cells Comprising PACC EGFR Mutations to Second-Generation TKIs (EGFR L858R G724S): 0.0068 | Response of Cells Comprising PACC EGFR Mutations to Second-Generation TKIs (EGFR L858R/L718V): 0.01621 | Response of Cells Comprising PACC EGFR Mutations to Second-Generation TKIs (EGFR L858R/L792H): 0.07789 | Response of Cells Comprising Classical-Like EGFR Mutations to Second-Generation TKIs (EGFR L861Q): 0.02499 | Response of Cells Comprising PACC EGFR Mutations to Second-Generation TKIs (EGFR S768I V774M): 0.1181 | Response of Cells Comprising Classical-Like EGFR Mutations to Second-Generation TKIs (EGFR S784F): 0.08572
